From US5830697A, “P-glycoprotein mutant resistant to cyclosporin modulation” (The Board of Trustees of the Leland Stanford Junior …, priority 1997, dated 1998)
Where two headings read alike, the source gives them in different places.

Key:
[1] = biological target: P-gp of DxP cells (Phe335/336 deletion) (Homo sapiens, UniProt P08183, DEL335-335)
Experimental: (§6) Photoaffinity Labeling with [^25 -I]-iodoarylazidoprazesin and [^3 H]-Azidopine. […] These preparations were incubated at 25° C. for 1 hour in the dark, followed by a 20 min exposure to a 366 nm UV source (UVP, Inc., San Gabriel, Calif.). 50 μl of loading buffer was added and proteins separated on an 8% SDS-polyacrylamide gel, dried, and analyzed by autoradiography.

[2] = tested on: DxP cells; test: Cellular accumulation of [3H]-labeled drugs; type: cell-based, human
Experimental: (§1) Cellular Accumulation of [^3 H]-Daunorubicin, [^3 H]-Vinblastine, and [^3 H]Cyclosporine. lntracellular drug accumulation was quantified using radiolabeled drugs in a modified assay. The cells were seeded in 35×10 mm tissue culture dishes (Falcon, Becton Dickinson, Lincoln Park, N.J.), at 1×10^6 cells/dish. After overnight incubation, the growth medium was replaced with serum-free McCoy's 5A medium supplemented with 40 mM Hepes buffer (Sigma Chemicals, St. Louis, Mo.). Radiolabeled drugs were added at the appropriate concentration and incubated for 1 hr at 37° C. The medium was aspirated and cell pellet solubilized in 4% SDS at 65° C. for 1 hr. Ecolite™ scintillation cocktail (INC Biochemicals, Costa Mesa, Calif.) was added and radioactivity determined on an LS-9000 scintillation counter (Beckman Instruments, Brea, Calif.). All values were normalized to protein content.

[3] = tested on: Dx5 cells; test: Cellular accumulation of [3H]-labeled drugs; type: cell-based, human
Experimental: as §1

[4] = tested on: MES-SA/Dx5 (Dx5) cells; test: Growth inhibition (MTT) assay, with or without MDR modulators; type: cell-based, human
Experimental: (§2) Cells and Tissue Culture. Details of the development and characterization of the human cell line MES-SA and its MDR variant MES-SA/Dx5 (D×5), which were derived from sarcoma elements of a uterine mixed Mullerian tumor, are described in Harker and Sikic (1985) Cancer Research 45:3810-3815. MES-SA/DxP5002 (DxP) cells were derived from Dx5.05 cells (D×5 cells selected and maintained at a DOX concentration of 0.5 μM) by step-wise selection in the presence of increasing DOX concentrations (from 40 nM up to 0.5 μM) and a constant PSC 833 concentration at 2 μM over a one-year period. Monolayer cultures of MES-SA cells and its variants were grown in McCoy's medium (Irvine Scientific, Santa Ana, Calif.) supplemented with 10% newborn calf serum (Gibco, Grand Island, N.Y.), 2 mM L-glutamine, and antibiotics(100 U/ml penicillin, 100 μg/ml streptomycin).
(§3) Growth Inhibition Assay. Approximately 8000 cells per well were seeded in 96 well plates and incubated with or without drugs for 72 hr at 37° C. in an atmosphere of 5% CO2. Growth inhibition was evaluated by the MTT colorimetric assay in triplicate or quadruplicate as previously described. The absorbance was measured with a ThermoMax microplate reader (Molecular Devices, Menlo Park, Calif.). The IC50 (drug concentration resulting in 50% inhibition of MTT dye formation, compared to controls) was determined directly from semi-logarithmic dose-response curves. The doubling times of MES-SA, D×5, and D×P were determined as previously described.
(§4) Reversal of MDR by Modulators. […] The modulation ratio was obtained by comparing IC50 s in the presence and absence of modulators.

[5] = tested on: Dx5 cells; test: Rh-123 retention, flow cytometry; type: cell-based, human
Experimental: Flow Cytometric Analysis. The flow cytometric analysis of Rh-123 retention and P-gp expression were determined by a dual laser flow cytometer (FACS-II™; Becton Dickinson Corp., Mountain View, Calif.). Double labeling with Rh-123 and the monoclonal antibody UIC2 (Immunotech Coporation, Westbrook, Me.) was performed as previously described. Briefly, following the Rh-123 incubation step, cells were treated with UIC2 (40 μg/ml) and then reacted with either Texas Red or FITC-conjugated goat anti-mouse IgG2a secondary antibody (Caltag, So. San Francisco, Calif,). Cells were centrifuged through a calf serum cushion, resuspended in 200 μl of modified ice-cold Hank's balanced salt solution, and analyzed by flow cytometry.

[6] = tested on: MES-SA/DxP5002 (DxP) cells; test: Growth inhibition (MTT) assay, with or without MDR modulators; details: for Dx5/DxP, fold of resistance difference in DxP cells compared with parental Dx5 cells: DxP vs Dx5
Experimental: Cells and Tissue Culture. […] Monolayer cultures of MES-SA cells and its variants were grown in McCoy's medium (Irvine Scientific, Santa Ana, Calif.) supplemented with 10% newborn calf serum (Gibco, Grand Island, N.Y.), 2 mM L-glutamine, and antibiotics(100 U/ml penicillin, 100 μg/ml streptomycin).
as §3, with “The IC50 (drug concentration resulting in 50% inhibition of MTT dye formation, compared to controls) was determined directly from semi-logarithmic dose-response curves.” left out
as §4

[7] = biological target: P-gp of Dx5 cells (Homo sapiens, UniProt P08183)
Sequence of P-gp of Dx5 cells (P08183 whole entry): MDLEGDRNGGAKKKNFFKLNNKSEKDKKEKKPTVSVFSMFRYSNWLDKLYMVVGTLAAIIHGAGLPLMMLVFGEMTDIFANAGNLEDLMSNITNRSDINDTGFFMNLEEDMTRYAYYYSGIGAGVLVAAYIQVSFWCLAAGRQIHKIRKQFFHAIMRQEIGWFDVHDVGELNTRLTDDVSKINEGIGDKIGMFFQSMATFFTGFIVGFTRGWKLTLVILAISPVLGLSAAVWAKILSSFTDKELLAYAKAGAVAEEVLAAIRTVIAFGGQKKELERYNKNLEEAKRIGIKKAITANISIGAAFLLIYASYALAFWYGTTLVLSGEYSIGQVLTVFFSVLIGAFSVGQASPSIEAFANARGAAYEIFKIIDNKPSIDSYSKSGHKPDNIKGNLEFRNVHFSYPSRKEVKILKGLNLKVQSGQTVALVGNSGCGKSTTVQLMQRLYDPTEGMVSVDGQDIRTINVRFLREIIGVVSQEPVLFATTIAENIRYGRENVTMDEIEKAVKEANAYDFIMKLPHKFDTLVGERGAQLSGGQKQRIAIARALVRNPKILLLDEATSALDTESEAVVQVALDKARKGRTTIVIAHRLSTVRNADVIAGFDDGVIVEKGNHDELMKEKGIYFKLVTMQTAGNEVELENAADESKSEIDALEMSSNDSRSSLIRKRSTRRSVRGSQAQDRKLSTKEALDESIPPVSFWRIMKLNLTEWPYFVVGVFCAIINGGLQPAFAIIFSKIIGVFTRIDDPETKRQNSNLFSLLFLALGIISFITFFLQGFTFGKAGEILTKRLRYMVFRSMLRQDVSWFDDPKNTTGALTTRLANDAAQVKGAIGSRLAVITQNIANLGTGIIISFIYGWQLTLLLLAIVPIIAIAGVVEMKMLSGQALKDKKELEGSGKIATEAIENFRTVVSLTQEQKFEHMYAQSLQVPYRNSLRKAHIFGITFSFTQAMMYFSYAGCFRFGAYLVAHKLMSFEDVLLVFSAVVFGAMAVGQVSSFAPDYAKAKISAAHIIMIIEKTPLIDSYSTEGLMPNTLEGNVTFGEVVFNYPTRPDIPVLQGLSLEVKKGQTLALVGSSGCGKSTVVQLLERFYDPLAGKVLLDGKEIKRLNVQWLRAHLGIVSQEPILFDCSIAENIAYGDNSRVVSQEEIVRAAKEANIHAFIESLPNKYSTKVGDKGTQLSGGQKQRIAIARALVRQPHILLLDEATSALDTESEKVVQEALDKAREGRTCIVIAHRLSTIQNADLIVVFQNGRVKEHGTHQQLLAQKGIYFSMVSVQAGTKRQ
Experimental: as §6

[8] = tested on: Dx/PBS cells; test: MTT assay, DxP subclone; type: cell-based, human
Experimental: as §3, §4
(§5) Clonal Analysis of D×P cells. Subcloning of cells was performed by limiting dilution. Both resistant and revertant clones were analyzed for the MDR phenotype, drug accumulation, and rt-PCR or heteroduplex as described above.

[9] = tested on: Dx/PES cells; test: MTT assay, DxP subclone; type: cell-based, human
Experimental: as §3, §4, §5

[10] = tested on: Dx/PIS cells; test: MTT assay, DxP subclone; type: cell-based, human
Experimental: as §3, §4, §5

[11] = tested on: Dx/PGS cells; test: MTT assay, DxP subclone; type: cell-based, human
Experimental: as §3, §4, §5

[12] = tested on: Dx/PCS cells; test: MTT assay, DxP subclone; type: cell-based, human
Experimental: as §3, §4, §5

[13] = tested on: Dx/PJS cells; test: MTT assay, DxP subclone; type: cell-based, human
Experimental: as §3, §4, §5

[14] = tested on: Dx/PAS cells; test: MTT assay, DxP subclone; type: cell-based, human
Experimental: as §3, §4, §5

[15] = tested on: Dx/PFS cells; test: MTT assay, DxP subclone; type: cell-based, human
Experimental: as §3, §4, §5

[16] = tested on: Dx/PMS cells; test: MTT assay, DxP subclone; type: cell-based, human
Experimental: as §3, §4, §5

[17] = tested on: Dx/PDS cells; test: MTT assay, DxP subclone; type: cell-based, human
Experimental: as §3, §4, §5

[18] = tested on: MES-SA cells; test: Growth inhibition (MTT) assay, with or without MDR modulators; type: cell-based, human; details: MES-SA cells; for IC50: Homo sapiens, read-out: IC50 of drug-sensitive MES-SA cells (values in parenthesis)
Experimental: as §2, §3, §4

[19] = no modulator, relative to MES-SA

Sequence of P-gp of DxP cells (Phe335/336 deletion) (P08183 with tags, fused parts or gaps DEL335-335): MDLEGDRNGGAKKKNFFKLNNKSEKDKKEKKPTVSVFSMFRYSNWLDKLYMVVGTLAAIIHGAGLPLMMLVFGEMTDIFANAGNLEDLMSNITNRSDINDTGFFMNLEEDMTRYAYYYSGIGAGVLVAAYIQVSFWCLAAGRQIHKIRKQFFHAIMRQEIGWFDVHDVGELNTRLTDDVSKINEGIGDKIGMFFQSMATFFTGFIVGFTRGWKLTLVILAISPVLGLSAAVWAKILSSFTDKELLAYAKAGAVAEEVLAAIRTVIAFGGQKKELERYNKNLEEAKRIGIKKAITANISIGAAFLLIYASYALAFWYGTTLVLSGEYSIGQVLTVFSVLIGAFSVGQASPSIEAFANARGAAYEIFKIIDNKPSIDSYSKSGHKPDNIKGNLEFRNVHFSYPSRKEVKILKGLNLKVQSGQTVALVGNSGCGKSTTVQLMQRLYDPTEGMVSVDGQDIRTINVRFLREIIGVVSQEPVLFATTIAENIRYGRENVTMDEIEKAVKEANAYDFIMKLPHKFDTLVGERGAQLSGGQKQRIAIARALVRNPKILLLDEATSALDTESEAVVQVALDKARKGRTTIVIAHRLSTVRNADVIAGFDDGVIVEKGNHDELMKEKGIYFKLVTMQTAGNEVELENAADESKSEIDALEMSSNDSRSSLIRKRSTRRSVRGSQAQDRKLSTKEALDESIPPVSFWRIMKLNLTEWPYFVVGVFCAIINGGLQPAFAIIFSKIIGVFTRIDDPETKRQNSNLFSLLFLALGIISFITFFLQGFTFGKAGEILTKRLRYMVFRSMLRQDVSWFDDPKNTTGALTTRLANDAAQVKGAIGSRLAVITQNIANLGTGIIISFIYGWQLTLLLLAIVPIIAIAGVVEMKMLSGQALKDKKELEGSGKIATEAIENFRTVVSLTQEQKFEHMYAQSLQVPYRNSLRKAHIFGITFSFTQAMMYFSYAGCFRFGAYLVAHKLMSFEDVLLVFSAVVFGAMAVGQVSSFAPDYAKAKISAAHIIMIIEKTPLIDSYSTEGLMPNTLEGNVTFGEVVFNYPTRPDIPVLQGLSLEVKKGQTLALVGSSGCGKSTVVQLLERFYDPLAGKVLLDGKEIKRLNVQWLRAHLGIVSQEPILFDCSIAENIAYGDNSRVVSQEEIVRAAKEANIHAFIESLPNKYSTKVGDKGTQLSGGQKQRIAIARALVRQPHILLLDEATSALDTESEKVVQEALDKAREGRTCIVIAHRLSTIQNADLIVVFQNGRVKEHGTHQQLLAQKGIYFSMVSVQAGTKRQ

Compound: C/C=C/C[C@@H](C)C(=O)[C@H]1C(=O)N[C@@H](C(C)C)C(=O)N(C)CC(=O)N(C)[C@@H](CC(C)C)C(=O)N[C@@H](C(C)C)C(=O)N(C)[C@@H](CC(C)C)C(=O)N[C@@H](C)C(=O)N[C@H](C)C(=O)N(C)[C@@H](CC(C)C)C(=O)N(C)[C@@H](CC(C)C)C(=O)N(C)[C@@H](C(C)C)C(=O)N1C [PSC 833]
- Displacement of [3H]-azidopine photoaffinity labeling [1]: resistant to the displacement
- Effect on [125I]-iodoarylazidoprazosin photoaffinity labeling of P-gp ([1]; 100 μM): abolished detectable P-gp labeling
- Effect on [125I]-iodoarylazidoprazosin photoaffinity labeling of P-gp ([1]; 0.1 and 10 μM): enhanced photoaffinity binding
- Modulation of decreased drug accumulation by modulator ([2]; DxP cells): not modulated
- Modulation of decreased drug accumulation by modulator [3]: complete modulation
- Modulation of decreased [3H]-cyclosporin accumulation by modulator ([3]; to levels of DxP and MES-SA cells): completely modulated
- Modulation of MDR by the modulator (in words) ([4]; 2 μM, sensitivity to DOX, vinblastine, paclitaxel, vincristine and colchicine relative to MES-SA): completely restored the sensitivity
- Effect of modulator on Rh-123 accumulation ([5]; PSC 833 2 μM): completely restored
- Resistance of cells to the modulating effects of the modulator (in words) ([6]; DxP cells, PSC 833 2 μM, cyclosporin 3 μM, verapamil 6 μM): almost completely resistant
- Effect on [125I]-iodoarylazidoprazosin photoaffinity labeling of P-gp ([7]; 100 μM): abolished detectable P-gp labeling
- Effect on [125I]-iodoarylazidoprazosin photoaffinity labeling of P-gp ([7]; 0.1 and 10 μM): effectively competed

Compound: CC[C@]1(O)C[C@@H]2CN(CCc3c([nH]c4ccccc34)[C@@](C(=O)OC)(c3cc4c(cc3OC)N(C)[C@H]3[C@@](O)(C(=O)OC)[C@H](OC(C)=O)[C@]5(CC)C=CCN6CC[C@]43[C@@H]65)C2)C1 [Vinblastine]
- Displacement of [3H]-azidopine photoaffinity labeling [1]: resistant to the displacement
- Effect on [125I]-iodoarylazidoprazosin photoaffinity labeling of P-gp ([1]; 100 μM): abolished detectable P-gp labeling
- Effect on [125I]-iodoarylazidoprazosin photoaffinity labeling of P-gp ([1]; 0.1 and 10 μM): enhanced photoaffinity binding
- fold resistance relative to MES-SA ([8]; + PSC): 1 fold
- fold resistance relative to MES-SA ([8]; no modulator): 3 fold
- fold resistance relative to MES-SA ([9]; + PSC): 1 fold
- fold resistance relative to MES-SA ([9]; no modulator): 3 fold
- fold resistance relative to MES-SA ([10]; + PSC): 1 fold
- fold resistance relative to MES-SA ([10]; no modulator): 2 fold
- fold resistance relative to MES-SA ([11]; + PSC): 1 fold
- fold resistance relative to MES-SA ([11]; no modulator): 2 fold
- fold resistance relative to MES-SA ([12]; + PSC): 3 fold
- fold resistance relative to MES-SA ([12]; no modulator): 8 fold
- fold resistance relative to MES-SA ([13]; + PSC): 10 fold
- fold resistance relative to MES-SA ([13]; no modulator): 19 fold
- fold resistance relative to MES-SA ([14]; + PSC): 5 fold
- fold resistance relative to MES-SA ([14]; no modulator): 15 fold
- fold resistance relative to MES-SA ([15]; + PSC): 8 fold
- fold resistance relative to MES-SA ([15]; no modulator): 21 fold
- fold resistance relative to MES-SA ([16]; + PSC): 2 fold
- fold resistance relative to MES-SA ([16]; no modulator): 5 fold
- fold resistance relative to MES-SA ([17]; + PSC): 6 fold
- fold resistance relative to MES-SA ([17]; no modulator): 20 fold
- IC50 ([18]; 72 hr MTT): 0.004 µM
- Fold resistance ([18]; +2 μM PSC 833): 0.3-1 fold
- Fold resistance ([18]; +2 μM PSC 833, listed as vinblastine): 0.5 fold
- Fold resistance ([18]; +3 μM cyclosporin A): 0.5-1 fold
- Fold resistance ([18]; +6 μM Verapamil): 0.4-1 fold
- Fold resistance ([18]; no modulator, 72 hr MTT): 1 fold
- Fold resistance ([4]; +2 μM PSC 833): 1 fold
- Fold resistance ([4]; +3 μM cyclosporin A): 6 fold
- Fold resistance ([4]; +6 μM Verapamil): 4 fold
- Fold resistance [4, 19]: 243 fold
- Fold resistance ([6]; DxP cells, +2 μM PSC 833): 12 fold
- Fold resistance ([6]; DxP cells, +3 μM cyclosporin A): 7 fold
- Fold resistance ([6]; DxP cells, +6 μM Verapamil): 3 fold
- Fold resistance ([6]; DxP cells, no modulator, relative to MES-SA): 14 fold
- Dx5/DxP, fold of resistance difference in DxP cells compared with parental Dx5 cells [6]: 17 fold
- Effect on [125I]-iodoarylazidoprazosin photoaffinity labeling of P-gp ([7]; 100 μM): abolished detectable P-gp labeling
- Effect on [125I]-iodoarylazidoprazosin photoaffinity labeling of P-gp ([7]; 0.1 and 10 μM): effectively competed

Compound: COc1cc([C@@H]2c3cc4c(cc3[C@@H](O[C@@H]3O[C@@H]5CO[C@@H](C)O[C@H]5[C@H](O)[C@H]3O)[C@H]3COC(=O)[C@H]23)OCO4)cc(OC)c1O [Etoposide]
- IC50 ([18]; 72 hr MTT): 0.5 µM
- Fold resistance ([18]; +2 μM PSC 833): 1 fold
- Fold resistance ([18]; no modulator, 72 hr MTT): 1 fold
- Fold resistance ([4]; +2 μM PSC 833): 1 fold
- Fold resistance [4, 19]: 42 fold
- Level of resistance of DxP cells to the cytotoxin compared with parental Dx5 (in words) ([6]; DxP cells): moderately decreased resistance
- Fold resistance ([6]; DxP cells, +2 μM PSC 833): 18 fold
- Dx5/DxP, fold of resistance difference in DxP cells compared with parental Dx5 cells [6]: 2 fold

Compound: Rhodamine-123 [Rh-123]
- Cellular accumulation of Rh-123 [5]: markedly decreased

Compound: [^3 H]-vinblastine
- Intracellular accumulation in DxP relative to Dx5 cells ([2]; [3H]-labeled drug, 1 hr): approximately 3 fold
